The numbers were not newly measured in patent publication US20050042268A1, “Pharmaceutical composition and method for transdermal drug delivery” (priority 2003, published 2005), which cites them from elsewhere.

Structures are written as SMILES.

On to `C[C@]12CC[C@H]3[C@@H](CCC4=CC(=O)CC[C@@]43C)[C@@H]1CC[C@@H]2O` [testosterone], for which the “free testosterone as part of the total concentration in the blood” value was 4 to 8% and the “testosterone in the blood bound to protein” value is “Over 90%”.
